From patent US20260049101A1, “TOPICAL TREATMENT OF SKIN CANCER USING OLIGOPEPTIDES” (BACOBA AG, priority 2022, published 2026)
Numbered stars: 1 amine (or outer) side, 2 acyl side, 3 side chain; on linkers, the order of the positions; unused ones are H or OH. Square brackets hold non-standard residues; d marks the D form. Peptide text beside a SMILES is read from it. * marks the point of attachment. X7 = O=C([C@H](Cc1nc2ccccc2o1)N[*:1])[*:2]; NH(2-morpholinoethyl) = C(CN1CCOCC1)N*; X4 = C[C@](N[*:1])(C(=O)[*:2])C(F)(F)F; NH(1-CH2NMe2-cBu) = CN(C)CC1(N*)CCC1; Oxazole4CO(2-Me) = Cc1nc(C(=O)*)co1; X8 = COc1ccc2cc(C(=O)*)c(=O)oc2c1; β3hAib = CC(C)(CC(=O)[*:2])N[*:1]; Benzoyl(4-F) = O=C(c1ccc(F)cc1)*; hCha = N[C@@H](CCC1CCCCC1)C(=O)O; Cha = N[C@@H](CC1CCCCC1)C(=O)O; β3hL = CC(C)C[C@H](N)CC(=O)O; NHCH2CH2NMe2 = CN(C)CCN*; Aib = CC(C)(N)C(=O)O; βAla = NCCC(=O)O

system: cutaneous squamous cell carcinoma cell line SCC12; test: In vitro anti-proliferative assay (resazurin) in SCC12; type: cell-based; settings: SCC12, 72 hours
Excerpt: Methodology. The cutaneous squamous cell carcinoma cell culture SCC12 was cultivated in keratinocyte-SFM media (KSFM, Cat #17005042, Gibco) supplemented with human recombinant epidermal growth factor 1-53 (EGF 1-53) and bovine pituitary extract (BFE).
Vehicle treated wells were set to 100% viability.

| Structure (SMILES) | IC50 |
| --- | --- |
| CC(C)C[C@H](NC(=O)[C@H](CC(C)C)NC(=O)[C@](C)(NC(=O)[C@H](CC(C)C)NC(=O)[C@H](CCC1CCCCC1)NC(=O)[C@@H]1CCCN1C(=O)c1ccc(F)cc1)C(F)(F)F)C(=O)NC(C)(C)C(=O)NC(C)(C)C(=O)NCCC(=O)NC1(CN(C)C)CCC1 [Compound 21362, (2S)-2-[(2S)-4-cyclohexyl-2-{[(2S)-1-(4-fluorobenzoyl)pyrrolidin-2-yl]formamido}butanamido]-N-[(1S)-1-{[(1S)-1-{[(1S)-1-({1-[(1-{[2-({1-[(dimethylamino)methyl]cyclobutyl}carbamoyl)ethyl]carbamoyl}-1-methylethyl)carbamoyl]-1-methylethyl}carbamoyl)-3-methylbutyl]carbamoyl}-3-methylbutyl]carbamoyl}-2,2,2-trifluoro-1-methylethyl]-4-methylpentanamide] ({Benzoyl(4-F)}-P[hCha]L[X4]LL[Aib][Aib][βAla]-{NH(1-CH2NMe2-cBu)}) | 0.717 µM |
| CC(C)C[C@H](NC(=O)[C@H](CCC1CCCCC1)NC(=O)[C@@H]1CCCN1C(=O)c1ccc(F)cc1)C(=O)NC(C)(C)C(=O)N[C@@H](CC(C)C)C(=O)N[C@@H](CC(C)C)C(=O)NC(C)(C)C(=O)NC(C)(C)CC(=O)NCCC(=O)NC1(CN(C)C)CCC1 [Compound 21365, (2S)-2-[(2S)-4-cyclohexyl-2-{[(2S)-1-(4-fluorobenzoyl)pyrrolidin-2-yl]formamido}butan-amido]-N-(1-{[(1S)-1-{[(1S)-1-({1-[(1-{[2-({1-[(dimethylamino)methyl]cyclobutyl}carbamoyl)ethyl]carbamoyl}-2-methylpropan-2-yl)carbamoyl]-1-methylethyl}carbamoyl)-3-methylbutyl]carbamoyl}-3-methylbutyl]carbamoyl}-1-methylethyl)-4-methylpentanamide] ({Benzoyl(4-F)}-P[hCha]L[Aib]LL[Aib][β3hAib][βAla]-{NH(1-CH2NMe2-cBu)}) | 0.511 µM |
| CC(C)C[C@H](NC(=O)[C@H](CCC1CCCCC1)NC(=O)[C@@H]1CCCN1C(=O)c1ccc(F)cc1)C(=O)NC(C)(C)C(=O)N[C@@H](CC(C)C)C(=O)N[C@@H](CC(C)C)C(=O)NC(C)(C)C(=O)NC(C)(C)C(=O)NCCC(=O)NCCN(C)C [Compound 8343, (2S)-2-[(2S)-4-cyclohexyl-2-{[(2S)-1-(4-fluorobenzoyl)pyrrolidin-2-yl]formamido}butanamido]-N-(1-{[(1S)-1-{[(1S)-1-{[1-({1-[(2-{[2-(dimethylamino)ethyl]carbamoyl}ethyl)carbamoyl]-1-methylethyl}carbamoyl)-1-methylethyl]carbamoyl}-3-methylbutyl]carbamoyl}-3-methylbutyl]carbamoyl}-1-methylethyl)-4-methylpentanamide] ({Benzoyl(4-F)}-P[hCha]L[Aib]LL[Aib][Aib][βAla]-NHCH2CH2NMe2) | 0.241 µM |
| Cc1nc(C(=O)N2CCC[C@H]2C(=O)N[C@@H](Cc2ccccc2)C(=O)N[C@@H](CC(C)C)C(=O)NC(C)(C)C(=O)N[C@@H](CC(C)C)C(=O)N[C@@H](CC(C)C)C(=O)NC(C)(C)C(=O)NC(C)(C)C(=O)NCCC(=O)NC2(CN(C)C)CCC2)co1 [Compound 6328, (2S)—N-(1-{[(1S)-1-{[(1S)-1-({1-[(1-{[2-({1-[(dimethylamino)methyl]cyclobutyl}carbamoyl)ethyl]carbamoyl}-1-methylethyl)carbamoyl]-1-methylethyl}carbamoyl)-3-methylbutyl]carbamoyl}-3-methylbutyl]carbamoyl}-1-methylethyl)-4-methyl-2-[(2S)-2-{[(2S)-1-(2-methyl-1,3-oxazole-4-carbonyl)pyrrolidin-2-yl]formamido}-3-phenylpropanamido]pentanamide] ({Oxazole4CO(2-Me)}-PFL[Aib]LL[Aib][Aib][βAla]-{NH(1-CH2NMe2-cBu)}) | 1.66 µM |
| CC(C)C[C@H](NC(=O)[C@H](CCC1CCCCC1)NC(=O)[C@@H]1CCCN1C(=O)c1ccc(F)cc1)C(=O)NC(C)(C)C(=O)N[C@@H](CC(C)C)C(=O)N[C@@H](CC(C)C)C(=O)NC(C)(C)C(=O)NC(C)(C)C(=O)NCCC(=O)NCCN1CCOCC1 [Compound 8341, (2S)-2-[(2S)-4-cyclohexyl-2-{[(2S)-1-(4-fluorobenzoyl)pyrrolidin-2-yl]formamido}butanamido]-4-methyl-N-(1-methyl-1-{[(1S)-3-methyl-1-{[(1S)-3-methyl-1-{[1-methyl-1-({1-methyl-1-[(2-{[2-(morpholin-4-yl)ethyl]carbamoyl}ethyl)carbamoyl]ethyl}carbamoyl)ethyl]carbamoyl}butyl]carbamoyl}butyl]carbamoyl}ethyl)pentanamide] ({Benzoyl(4-F)}-P[hCha]L[Aib]LL[Aib][Aib][βAla]-{NH(2-morpholinoethyl)}) | 1.02 µM |
| CC(C)C[C@H](NC(=O)[C@H](Cc1nc2ccccc2o1)NC(=O)[C@@H]1CCCN1C(=O)c1ccc(F)cc1)C(=O)NC(C)(C)C(=O)N[C@@H](CC(C)C)C(=O)N[C@@H](CC(C)C)C(=O)NC(C)(C)C(=O)NC(C)(C)C(=O)NCCC(=O)NC1(CN(C)C)CCC1 [Compound 7850, (2S)-2-[(2S)-3-(1,3-benzoxazol-2-yl)-2-{[(2S)-1-(4-fluorobenzoyl)pyrrolidin-2-yl]formamido}propanamido]-N-(1-{[(1S)-1-{[(1S)-1-({1-[(1-{[2-({1-[(dimethylamino)methyl]cyclobutyl}carbamoyl)ethyl]carbamoyl}-1-methylethyl)carbamoyl]-1-methylethyl}carbamoyl)-3-methylbutyl]carbamoyl}-3-methylbutyl]carbamoyl}-1-methylethyl)-4-methylpentanamide] ({Benzoyl(4-F)}-P[X7]L[Aib]LL[Aib][Aib][βAla]-{NH(1-CH2NMe2-cBu)}) | 1.04 µM |
| CC(C)C[C@H](NC(=O)[C@H](CCC1CCCCC1)NC(=O)[C@@H]1CCCN1C(=O)c1ccc(F)cc1)C(=O)NCC(C)(C)C(=O)N[C@@H](CC(C)C)C(=O)N[C@@H](CC(C)C)C(=O)NCC(C)(C)C(=O)NCC(C)(C)C(=O)NCCC(=O)NC1(CN(C)C)CCC1 [Compound 21189, (2S)-2-[(2S)-4-cyclohexyl-2-{[(2S)-1-(4-fluorobenzoyl)pyrrolidin-2-yl]formamido}butan-amido]-N-(2-{[(1S)-1-{[(1S)-1-({2-[(2-{[2-({1-[(dimethylamino)methyl]cyclobutyl}carbamoyl)ethyl]carbamoyl}-2,2-dimethylethyl)carbamoyl]-2,2-dimethylethyl}carbamoyl)-3-methylbutyl]carbamoyl}-3-methylbutyl]carbamoyl}-2,2-dimethylethyl)-4-methylpentanamide] | > 10 µM |
| CC(C)C[C@@H](CC(=O)NC(C)(C)C(=O)N[C@@H](CC(C)C)C(=O)N[C@@H](CC(C)C)C(=O)NC(C)(C)C(=O)NC(C)(C)C(=O)NCCC(=O)NC1(CN(C)C)CCC1)NC(=O)[C@H](CCC1CCCCC1)NC(=O)[C@@H]1CCCN1C(=O)c1ccc(F)cc1 [Compound 21314, (3S)-3-[(2S)-4-cyclohexyl-2-{[(2S)-1-(4-fluorobenzoyl)pyrrolidin-2-yl]formamido}butan-amido]-N-(1-{[(1S)-1-{[(1S)-1-({1-[(1-{[2-({1-[(dimethylamino)methyl]cyclobutyl}carba-moyl)ethyl]carbamoyl}-1-methylethyl)carbamoyl]-1-methylethyl}carbamoyl)-3-methylbutyl]carbamoyl}-3-methylbutyl]carbamoyl}-1-methylethyl)-5-methylhexanamide] ({Benzoyl(4-F)}-P[hCha][β3hL][Aib]LL[Aib][Aib][βAla]-{NH(1-CH2NMe2-cBu)}) | 0.324 µM |
| Cc1nc(C(=O)N2CCC[C@H]2C(=O)N[C@@H](CC2CCCCC2)C(=O)N[C@@H](CC(C)C)C(=O)NC(C)(C)C(=O)N[C@@H](CC(C)C)C(=O)N[C@@H](CC(C)C)C(=O)NC(C)(C)C(=O)NC(C)(C)C(=O)NCCC(=O)NC2(CN(C)C)CCC2)co1 [Compound 7059, (2S)-2-[(2S)-3-cyclohexyl-2-{[(2S)-1-(2-methyl-1,3-oxazole-4-carbonyl)pyrrolidin-2-yl]formamido}propanamido]-N-(1-{[(1S)-1-{[(1S)-1-({1-[(1-{[2-({1-[(dimethylamino)methyl]cyclobutyl}carbamoyl)ethyl]carbamoyl}-1-methylethyl)carbamoyl]-1-methylethyl}carbamoyl)-3-methylbutyl]carbamoyl}-3-methylbutyl]carbamoyl}-1-methylethyl)-4-methylpentanamide] ({Oxazole4CO(2-Me)}-P[Cha]L[Aib]LL[Aib][Aib][βAla]-{NH(1-CH2NMe2-cBu)}) | 0.5 µM |
| COc1ccc2cc(C(=O)N3CCC[C@H]3C(=O)N[C@@H](CCC3CCCCC3)C(=O)N[C@@H](CC(C)C)C(=O)NC(C)(C)C(=O)N[C@@H](CC(C)C)C(=O)N[C@@H](CC(C)C)C(=O)NC(C)(C)C(=O)NC(C)(C)C(=O)NCCC(=O)NC3(CN(C)C)CCC3)c(=O)oc2c1 [Compound 21287, (2S)-2-[(2S)-4-cyclohexyl-2-{[(2S)-1-(7-methoxy-2-oxo-2H-chromene-3-carbonyl)pyrrolidin-2-yl]formamido}butanamido]-N-(1-{[(1S)-1-{[(1S)-1-({1-[(1-{[2-({1-[(dimethylamino)methyl]cyclobutyl}carbamoyl)ethyl]carbamoyl}-1-methylethyl)carbamoyl]-1-methylethyl}carbamoyl)-3-methylbutyl]carbamoyl}-3-methylbutyl]carbamoyl}-1-methylethyl)-4-methylpentanamide] (X8-P[hCha]L[Aib]LL[Aib][Aib][βAla]-{NH(1-CH2NMe2-cBu)}) | 0.595 µM |
| COc1ccc(-c2ccc(OC[C@H](NC(=O)[C@@H]3CCCN3C(=O)c3ccc(F)cc3)C(=O)N[C@@H](CC(C)C)C(=O)NC(C)(C)C(=O)N[C@@H](CC(C)C)C(=O)N[C@@H](CC(C)C)C(=O)NC(C)(C)C(=O)NC(C)(C)C(=O)NCCC(=O)NC3(CN(C)C)CCC3)cc2)cc1 [Compound 7824, (2S)—N-{1-[(1-{[2-({1-[(dimethylamino)methyl]cyclobutyl}carbamoyl)ethyl]carbamoyl}-1-methylethyl)carbamoyl]-1-methylethyl}-2-[(2S)-2-{2-[(2S)-2-[(2S)-2-{[(2S)-1-(4-fluorobenzoyl)pyrrolidin-2-yl]formamido}-3-({4′-methoxy-[1,1′-biphenyl]-4-yl}oxy)propanamido]-4-methylpentanamido]-2-methylpropanamido}-4-methylpentanamido]-4-methylpentanamide] | 0.375 µM |
